Experimental findings from patent US20200093890A1, “COMPOSITIONS AND METHODS FOR TREATING ALZHEIMER'S DISEASE” (CASE WESTERN RESERVE UNIVERSITY, priority 2017, published 2020) are described below.

This experiment deals with APP processing. The experiment is described as follows: Immunoblot of APP processing (FIG. 12). The text has this:
FIG. 12 illustrates an immunoblot showing the effects ISP in combination with a γ-secretase inhibitor on APP processing compared to a γ-secretase inhibitor administered alone or a BACE1 inhibitor administered in combination with a γ-secretase inhibitor. […]
Background: A western blot detects proteins with antibodies after separation by electrophoresis.

“NH2GRKKRRQRRRCDMAEHTMERLKANDSLKLSQEYESI-NH2 [ISP]”: for the setting “ISP in combination with a γ-secretase inhibitor, compared to a γ-secretase inhibitor alone or a BACE1 inhibitor in combination with a γ-secretase inhibitor”, the “effect on APP processing (immunoblot)” value was “substantially inhibited APP processing”. For the same substance, the “suppression of APP amyloidogenic processing by BACE1” value (blocking PTPσ with wedge domain peptide mimetic, compared with PTPσ depletion) is “suppress APP amyloidogenic processing by BACE1, to a similar degree as PTPσ depletion”.
